Reference: patent US12721844B2, “Chronic kidney disease treatment or prevention method” (Japan Tobacco Inc., priority 2019, dated 2026)
Where “and” joins values, the source holds several entries; their conditions need not be identical. Identical values can stand only once.

Assays:
Format in all cases: cell-based
[1] = system: Salmonella typhimurium TA98; experiment: Ames test (reverse mutation test), TA98; settings: with S9 mix
Source text: (§1) Ames Test (Reverse Mutation Test)
(§2) Two plates per treatment were used.

[2] = system: Salmonella typhimurium TA1537; experiment: Ames test (reverse mutation test), TA1537
Source text: as §1, §2

[3] = system: Salmonella typhimurium TA1535; experiment: Ames test (reverse mutation test), TA1535
Source text: as §1, §2

[4] = system: Escherichia coli WP2 uvrA; experiment: Ames test (reverse mutation test), WP2 uvrA; settings: for Number of revertant colonies WP2uvrA: S9 Mix −
Source text: as §1, §2

[5] = system: Salmonella typhimurium TA100; experiment: Ames test (reverse mutation test), TA100; settings: with S9 mix
Source text: as §1, §2

[6] = with S9 mix, dose 1667 μg/plate
[7] = with S9 mix, dose 5000 μg/plate

Structure (SMILES) | potential to induce reverse mutations, TA100 [5] | Number of revertant colonies TA1535 ([3]; S9 Mix +, 2.3 μg/plate) | Number of revertant colonies TA1535 ([3]; S9 Mix +, 6.9 μg/plate) | Number of revertant colonies TA1535 ([3]; S9 Mix +, 21 μg/plate) | Number of revertant colonies TA1535 ([3]; S9 Mix +, 62 μg/plate) | Number of revertant colonies TA1535 ([3]; S9 Mix +, 185 μg/plate) | Number of revertant colonies TA1535 ([3]; S9 Mix +, 556 μg/plate) | Number of revertant colonies TA1535 ([3]; S9 Mix +, 1667 μg/plate) | Number of revertant colonies TA1535 ([3]; S9 Mix +, 5000 μg/plate) | Number of revertant colonies TA1535 ([3]; S9 Mix −, 2.3 μg/plate) | Number of revertant colonies TA1535 ([3]; S9 Mix −, 6.9 μg/plate) | Number of revertant colonies TA1535 ([3]; S9 Mix −, 21 μg/plate) | Number of revertant colonies TA1535 ([3]; S9 Mix −, 62 μg/plate) | Number of revertant colonies TA1535 ([3]; S9 Mix −, 185 μg/plate) | Number of revertant colonies TA1535 ([3]; S9 Mix −, 556 μg/plate) | Number of revertant colonies TA1535 ([3]; S9 Mix −, 1667 μg/plate) | Number of revertant colonies TA1535 ([3]; S9 Mix −, 5000 μg/plate) | potential to induce reverse mutations, TA98 [1] | potential to induce reverse mutations, TA1537 ([2]; with S9 mix) | also measured
Nc1ccc2cc3ccccc3cc2c1 [Example 2AA, 2-Aminoanthracene, reference compound] | – | – | – | – | – | – | – | – | – | – | – | – | – | – | – | – | – | – | – | Number of revertant colonies TA98 ([1]; dose 0.5 μg/plate (positive control)): 289; Number of revertant colonies TA1537 ([2]; with S9 mix, dose 2 μg/plate (positive control)): 135; Number of revertant colonies TA1535 ([3]; S9 Mix +, 2.0 μg/plate): 332 and 308 and 331 and 261 and 349; Number of revertant colonies TA1535 ([3]; with S9 mix, dose 2.0 (2) μg/plate (positive control)): 223 and 146 and 250
Nc1cc(-c2cccc(OC(F)(F)F)c2)n(-c2cccc(F)c2)n1 [Metabolite G] | showed potential to induce reverse mutations | 12 | 14 | 11 | 8 | 5 | 5 | 4 | 4 | 15 | 16 | 21 | 9 | 9 | 0 | 0 | 0 | – | – | Number of revertant colonies WP2uvrA ([4]; 2.3 μg/plate): 26; Number of revertant colonies WP2uvrA ([4]; 6.9 μg/plate): 23; Number of revertant colonies WP2uvrA ([4]; 21 μg/plate): 16; Number of revertant colonies WP2uvrA ([4]; 62 μg/plate): 14; Number of revertant colonies WP2uvrA ([4]; 185 μg/plate): 15; Number of revertant colonies WP2uvrA ([4]; 556 μg/plate): 10; Number of revertant colonies WP2uvrA ([4]; 1667 μg/plate): 17; Number of revertant colonies WP2uvrA ([4]; 5000 μg/plate): 6; potential to induce reverse mutations, TA1535 ([3]; without S9 mix): showed potential to induce reverse mutations
NC(=O)C(=Cc1ccc([N+](=O)[O-])o1)c1ccco1 [AF-2, 2-(2-Furyl)-3-(5-nitro-2-furyl)acrylamide, reference compound] | – | – | – | – | – | – | – | – | – | – | – | – | – | – | – | – | – | – | – | Number of revertant colonies WP2uvrA ([4]; 0.01 μg/plate): 74 and 89 and 100 and 87 and 79
CC(C)(C)Oc1cccc(-c2cc(N)nn2-c2ccccc2)c1 [Metabolite C] | showed potential to induce reverse mutations | – | – | – | – | – | – | – | – | 6 | 5 | 6 | 3 | 4 | 0 | 1 | 0 | showed potential to induce reverse mutations | – | Number of revertant colonies TA1537 ([2]; with S9 mix, dose 2.3 μg/plate): 6; Number of revertant colonies TA1537 ([2]; with S9 mix, dose 6.9 μg/plate): 7; Number of revertant colonies TA1537 ([2]; with S9 mix, dose 21 μg/plate): 7; Number of revertant colonies TA1537 ([2]; with S9 mix, dose 62 μg/plate): 9; Number of revertant colonies TA1537 ([2]; with S9 mix, dose 185 μg/plate): 9; Number of revertant colonies TA1537 ([2]; with S9 mix, dose 556 μg/plate): 4; Number of revertant colonies TA1537 [2, 6]: 4; Number of revertant colonies TA1537 [2, 7]: 5; Number of revertant colonies TA1535 ([3]; with S9 mix, dose 2.3 μg/plate): 8; Number of revertant colonies TA1535 ([3]; with S9 mix, dose 6.9 μg/plate): 8; Number of revertant colonies TA1535 ([3]; with S9 mix, dose 21 μg/plate): 5; Number of revertant colonies TA1535 ([3]; with S9 mix, dose 62 μg/plate): 4; Number of revertant colonies TA1535 ([3]; with S9 mix, dose 185 μg/plate): 5; Number of revertant colonies TA1535 ([3]; with S9 mix, dose 556 μg/plate): 4; Number of revertant colonies TA1535 [3, 6]: 5; Number of revertant colonies TA1535 [3, 7]: 4
CC(C)(OCc1cc(F)cc(-c2cc(N)nn2-c2ccc(F)cc2)c1)C(F)(F)F [Metabolite D] | – | 10 | 15 | 14 | 11 | 9 | 7 | 7 | 3 | 20 | 21 | 11 | 6 | 9 | 5 | 6 | 7 | showed potential to induce reverse mutations | showed potential to induce reverse mutations | –
Cl.Nc1c2ccccc2nc2ccccc12.O [Example 9AA, 9-Aminoacridine hydrochloride monohydrate, reference compound] | – | – | – | – | – | – | – | – | – | – | – | – | – | – | – | – | – | – | – | Number of revertant colonies TA1537 ([2]; without S9 mix, dose 80 μg/plate (positive control)): 372
Cc1ccc(-n2nc(N)cc2-c2cccc(OCC(F)(F)F)c2)cc1 [Metabolite F] | showed potential to induce reverse mutations | 22 | 21 | 20 | 23 | 13 | 7 | 0 | 0 | 17 | 13 | 19 | 11 | 3 | 0 | 0 | 0 | showed potential to induce reverse mutations | showed potential to induce reverse mutations | potential to induce reverse mutations, WP2 uvrA ([4]; without S9 mix): showed potential to induce reverse mutations
Nc1cc(-c2cccc(OCC(F)(F)F)c2)n(-c2ccc(F)cc2)n1 [Metabolite E] | showed potential to induce reverse mutations | 18 | 32 | 20 | 21 | 15 | 7 | 0 | 0 | 10 | 18 | 12 | 15 | 6 | 0 | 0 | 0 | showed potential to induce reverse mutations | showed potential to induce reverse mutations | Number of revertant colonies WP2uvrA ([4]; 2.3 μg/plate): 20; Number of revertant colonies WP2uvrA ([4]; 6.9 μg/plate): 26; Number of revertant colonies WP2uvrA ([4]; 21 μg/plate): 24; Number of revertant colonies WP2uvrA ([4]; 62 μg/plate): 27; Number of revertant colonies WP2uvrA ([4]; 185 μg/plate): 22; Number of revertant colonies WP2uvrA ([4]; 556 μg/plate): 10; Number of revertant colonies WP2uvrA ([4]; 1667 μg/plate): 15; Number of revertant colonies WP2uvrA ([4]; 5000 μg/plate): 7; potential to induce reverse mutations, TA1537 ([2]; without S9 mix): showed potential to induce reverse mutations; potential to induce reverse mutations, TA1535 ([3]; with S9 mix): showed potential to induce reverse mutations
Cc1cccc(-n2nc(N)cc2-c2cccc(OC(F)(F)F)c2)c1 [Metabolite H] | showed potential to induce reverse mutations | 11 | 14 | 19 | 15 | 13 | 6 | 3 | 3 | 12 | 17 | 18 | 14 | 14 | 6 | 6 | 4 | showed potential to induce reverse mutations | showed potential to induce reverse mutations | –
